Earlier results in patent publication US11389412B2, “Curcuminoid chlorophyllin (CHL) compositions and methods of preparation and use” (InovoBiologic Inc., priority 2017, dated 2022).

Settings: composition of curcuminoid mixture and essential oil arturmerone, U.S. Pat. No. 7,883,728

bioavailability of curcumin in human, maximum: about 93 ng/g
SMILES: COc1cc(C=CC(=O)CC(=O)C=Cc2ccc(O)c(OC)c2)ccc1O [curcumin, 1,7bis (4-hydroxy-3-methoxy phenyl)-1,6 heptadiene-3,5-dione]
